The target of assay [1] is T1, Kappa-type opioid receptor (Homo sapiens, UniProt P41145). The assay is described as follows: Antagonist activity assessed as inhibition of U50488-stimulated [35S]GTP-gamma-S binding to human kappa opioid receptor expressed in CHO cells. The format is functional, cell-based. On the technique in general: Binding of GTPγS marks nucleotide exchange on a G protein.
Assay [2] deals with T2, Delta-type opioid receptor (Homo sapiens, UniProt P41143). The assay is described as follows: Antagonist activity assessed as inhibition of BW373U86-stimulated [35S]GTP-gamma-S binding to human delta opioid receptor expressed in CHO cells. The format is functional, cell-based.
T2 sequence (P41143 whole entry): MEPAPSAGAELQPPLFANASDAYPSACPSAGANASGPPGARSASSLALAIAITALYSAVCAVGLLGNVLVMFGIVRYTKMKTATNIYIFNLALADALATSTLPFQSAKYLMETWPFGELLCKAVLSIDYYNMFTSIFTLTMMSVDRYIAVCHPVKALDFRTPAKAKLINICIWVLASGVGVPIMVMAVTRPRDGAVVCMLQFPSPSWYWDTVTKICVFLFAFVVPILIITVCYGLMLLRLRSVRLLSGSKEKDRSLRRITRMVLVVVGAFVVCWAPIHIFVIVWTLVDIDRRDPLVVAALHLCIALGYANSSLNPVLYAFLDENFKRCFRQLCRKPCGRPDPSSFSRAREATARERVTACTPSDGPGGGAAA
In assay [3] the target is T2, Delta-type opioid receptor. In words: Displacement of [3H]diprenorphine from human cloned delta opioid receptor expressed in CHO cells. The format is cell-based. (In general: Displacement assays read how much labelled ligand stays bound in the presence of the test substance.)
For assay [4], the target named is T1, Kappa-type opioid receptor. The assay is described as follows: Displacement of [3H]diprenorphine from human cloned kappa opioid receptor expressed in CHO cells. The format is cell-based.
For assay [5], the target named is T3, Mu-type opioid receptor (Homo sapiens, UniProt P35372). In words: Displacement of [3H]diprenorphine from human cloned mu opioid receptor expressed in CHO cells. The format is cell-based.
T3 sequence (P35372 whole entry): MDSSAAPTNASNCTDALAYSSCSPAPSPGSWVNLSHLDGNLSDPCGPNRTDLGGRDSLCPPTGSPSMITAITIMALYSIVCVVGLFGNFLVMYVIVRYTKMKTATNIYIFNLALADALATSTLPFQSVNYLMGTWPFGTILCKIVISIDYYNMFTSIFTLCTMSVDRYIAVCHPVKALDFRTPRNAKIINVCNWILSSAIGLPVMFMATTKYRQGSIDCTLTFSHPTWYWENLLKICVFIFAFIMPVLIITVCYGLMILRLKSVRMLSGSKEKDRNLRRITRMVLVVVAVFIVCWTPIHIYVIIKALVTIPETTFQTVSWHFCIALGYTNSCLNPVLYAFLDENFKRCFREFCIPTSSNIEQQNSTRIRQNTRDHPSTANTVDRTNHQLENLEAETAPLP
For assay [6], the target named is T3, Mu-type opioid receptor. In words: Antagonist activity assessed as inhibition of loperamide-stimulated [35S]GTPgammaS binding to human mu opioid receptor expressed in CHO cells. In kind it is functional, cell-based.
The target in assay [7] is T1, Kappa-type opioid receptor. The assay is described as follows: Inhibition of [3H]diprenorphine binding to human cloned kappa opioid receptor expressed in CHO cells at 10 uM. In kind it is cell-based.
The target of assay [8] is T3, Mu-type opioid receptor. In words: Inhibition of [3H]diprenorphine binding to human cloned mu opioid receptor expressed in CHO cells at 10 uM. In kind it is cell-based.
Assay [9] concerns the target T2, Delta-type opioid receptor. In words: Inhibition of [3H]diprenorphine binding to human cloned delta opioid receptor expressed in CHO cells at 10 uM. The format is cell-based.

pIC50, pKi: −log10 of the molar value.

T1 sequence (P41145 whole entry): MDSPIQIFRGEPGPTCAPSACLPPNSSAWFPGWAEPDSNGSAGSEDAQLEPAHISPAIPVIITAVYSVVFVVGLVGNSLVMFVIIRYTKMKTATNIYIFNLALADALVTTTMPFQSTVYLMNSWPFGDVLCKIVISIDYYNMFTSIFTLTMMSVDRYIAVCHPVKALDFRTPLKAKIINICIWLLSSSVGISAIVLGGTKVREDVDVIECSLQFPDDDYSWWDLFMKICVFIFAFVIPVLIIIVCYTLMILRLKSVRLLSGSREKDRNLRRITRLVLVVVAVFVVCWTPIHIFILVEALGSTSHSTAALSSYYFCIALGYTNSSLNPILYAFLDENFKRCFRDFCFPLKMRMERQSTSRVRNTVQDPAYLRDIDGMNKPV

By pIC50 is commonly meant the negative decadic logarithm of the IC50, by convention in mol/L. By pKi is commonly meant −log10 of the Ki, conventionally taken in molar units. Low values mean a high Ki, high ones a low Ki. Turning to `Cc1ccccc1CN1CCN2C[C@H](C)[C@](C)(c3cccc(O)c3)C[C@@H]2C1`, the pIC50 was 7.82 in assay [1], 7.21 in assay [2] and 8.74 in assay [6]. For the same molecule, the pKi in assay [3] was 7.05; in assay [4], 7.52; in assay [5], 9.01.
As a reminder, the inhibition is the percentage by which the read-out fell short of the control. Higher therefore signals a response far below the control. Regarding `C[C@H]1CN2CCN(Cc3ccncc3)C[C@H]2C[C@@]1(C)c1cccc(O)c1`, the pKi was 5.89 in [3] and 7.82 in assay [5]. Besides, the inhibition in assay [7] was found to be 67%. Further, in [6], the pIC50 is 7.74.
As to `C[C@H]1CN2C[C@H](c3ccccc3)N(Cc3ccccc3)C[C@H]2C[C@@]1(C)c1cccc(C(=O)O)c1`, the pKi in assay [3] was 5.60. Further, the inhibition was determined as 44% in [8] and 9% in assay [7].
Take `C[C@H]1CN2C[C@H](c3ccccc3)N(C)C[C@H]2C[C@@]1(C)c1cccc(O)c1`: the pIC50 in assay [1] was 8.62; in assay [2], 6.24. Also, the pKi was 5.64 in [3] and 7.89 in assay [4].
In the case of `C[C@H]1CN2CCN(Cc3ccccc3O)C[C@H]2C[C@@]1(C)c1cccc(O)c1`, the pIC50 is 8.03 in [1], 6.24 in [2] and 8.80 in [6]. The pKi is 6.52 in assay [3], 7.12 in assay [4] and 8.74 in assay [5].
As for `C[C@H]1CN2CCN(CC3CCCCC3)C[C@H]2C[C@@]1(C)c1cccc(O)c1`, the pIC50 was 7.44 in assay [1], 7.07 in assay [2] and 8.96 in [6]. Besides, the results for the pKi in assay [3], in assay [4] and in assay [5] were 7.19, 7.08 and 8.96, respectively.
As to `C[C@H]1CN2C[C@H](c3ccccc3)N(Cc3ccccc3)C[C@H]2C[C@@]1(C)c1ccccc1`, the inhibition was 26% in assay [9] and 11% in [7].
For `C[C@H]1CN2C[C@H](C3CCCCC3)NC[C@H]2C[C@@]1(C)c1cccc(O)c1`, the pIC50 is 8.92 in assay [1], 7.55 in assay [2] and 8.89 in assay [6]. Also, the pKi in assay [3] is 7.17; in assay [4], 7.80; in assay [5], 8.57.
On to `C[C@H]1CN2C[C@H](c3ccccc3)NC[C@H]2C[C@@]1(C)c1cccc(C(N)=O)c1`, for which the pIC50 is 8.64 in assay [1], 6.96 in assay [2] and 8.82 in assay [6]. Besides, the pKi was 7.22 in [3], 7.96 in assay [4] and 8.74 in assay [5].
As for `C[C@H]1CN2CCN(C)C[C@H]2C[C@@]1(C)c1cccc(O)c1`, the values for the inhibition in [9], in assay [8] and in assay [7] were 11%, 69% and 60%, respectively.
For the molecule `C[C@H]1CN2CCN(Cc3ccnc4ccccc34)C[C@H]2C[C@@]1(C)c1cccc(O)c1`, the figures for the inhibition in assay [9] and in [7] were 28% and 55%, respectively. In addition, the pKi in [5] was 7.06. Moreover, in assay [6], the negative-log IC50 (pIC50) is 7.10.
On to `C[C@H]1CN2CCN(Cc3cccs3)C[C@H]2C[C@@]1(C)c1cccc(O)c1`, for which the results for the pIC50 in assay [1], in assay [2] and in assay [6] were 8.18, 6.47 and 9.20, respectively. The pKi in [3] is 6.59; in assay [4] it was 7.43; in assay [5] it was 8.85.
As for `C[C@H]1CN2CCN(Cc3ccccc3Cl)C[C@H]2C[C@@]1(C)c1cccc(O)c1`, the pIC50 in [1] is 8.00; in assay [2] it was 6.72; in assay [6], 8.74. Besides, the pKi is 7.24 in [3], 7.80 in [4] and 9.33 in [5].
Take `C[C@H]1CN2CCN(S(=O)(=O)c3ccccc3)C[C@H]2C[C@@]1(C)c1cccc(O)c1`: the pKi in assay [3] was 5.77; in assay [5] it was 6.68. Besides, the inhibition in [7] was 34%. In addition, the pIC50 in assay [6] was 6.85.
Take `C[C@H]1CN2CCNC[C@H]2C[C@@]1(C)c1cccc(O)c1`: the inhibition was 35% in assay [9], 49% in assay [8] and 46% in [7].
Take `C[C@H]1CN2CCN(C(=O)CCc3ccccc3)C[C@H]2C[C@@]1(C)c1cccc(O)c1`: the pKi in assay [3] was 6.85; in assay [5] it was 6.80. The inhibition in assay [7] amounted to 65%. For the same molecule, the pIC50 in assay [6] was 7.11.
As for `C[C@H]1CN2C[C@H](c3ccccc3)N(Cc3ccccc3)C[C@H]2C[C@@]1(C)c1cccc(O)c1`, the pIC50 in [1] is 7.00; in [2] it was 5.89; in assay [6], 7.40. The pKi is 6.47 in [3], 6.92 in [4] and 8.33 in assay [5].
For the molecule `CC(=O)N1CCN2C[C@H](C)[C@](C)(c3cccc(O)c3)C[C@@H]2C1`, the inhibition in [9] worked out at 47%; in assay [7], 36%. Also, the pKi in [5] was 6.28.
For the molecule `C[C@H]1CN2CCN(S(C)(=O)=O)C[C@H]2C[C@@]1(C)c1cccc(O)c1`, the inhibition in assay [9] amounted to 5%; in assay [8], 45%; in assay [7], 14%.
In the case of `C[C@H]1CN2CCN(Cc3ccc(N(C)C)cc3)C[C@H]2C[C@@]1(C)c1cccc(O)c1`, the inhibition in assay [9] amounted to 26%; in assay [7] it was 34%. Moreover, the pKi in assay [5] was 6.12. The pIC50 in [6] is 6.72.
`COC(=O)c1cccc([C@]2(C)C[C@@H]3CN(Cc4ccccc4)[C@@H](c4ccccc4)CN3C[C@@H]2C)c1`: the inhibition was determined as 39% in assay [9], 24% in assay [8] and 6% in assay [7].

The values are drawn from ChEMBL document CHEMBL1137297, “Synthesis and pharmacological evaluation of novel octahydro-1H-pyrido[1,2-a]pyrazine as mu-opioid receptor antagonists” (J Med Chem, 2006).
